{"source": "patent US9265777B2", "about": "“Antiparasitic agent for fish and method of controlling proliferation of fish parasites” (NIPPON SUISAN KAISHA, LTD., priority 2009, dated 2016)", "data": [{"tested_on": "Cryptocaryon irritans", "assay": "Examples 3 and 4: oral administration of single inhibitors and a combination against Cryptocaryon irritans on Pagrus major", "format": "in vivo", "conditions": "60 mg/kg fish body weight/day for three days; 60 parasites per plot; P=<0.01", "text": "(§1) During the rearing period, 1.4 liters/min. of seawater was supplied. […] After exposure, seven fish each were moved into six 100-liter aquariums. During the rearing period, 1.4 liters/min. of seawater was supplied.", "values": [{"compound": "CN(Cc1cnc2nc(N)nc(N)c2n1)c1ccc(C(=O)N[C@@H](CCC(=O)O)C(=O)O)cc1", "note": "[MTX, methotrexate]", "growth rate of parasites (body length as percentage of control plot), difference to control plot": "statistically significant difference"}, {"compound": "N=C(N)c1ccc(OCCCCCOc2ccc(C(=N)N)cc2)cc1.O=S(=O)(O)CCO.O=S(=O)(O)CCO", "note": "[PMD, isethionic acid pentamidine salt]", "growth rate of parasites (body length as percentage of control plot), difference to control plot": "statistically significant difference"}, {"compound": "COc1cc(Cc2cnc(N)nc2N)cc(OC)c1OC", "note": "[TMP, trimethoprim]", "growth rate of parasites (body length as percentage of control plot), difference to control plot": "statistically significant difference"}]}, {"tested_on": "Cryptocaryon irritans", "assay": "Examples 3 and 4: oral administration of single inhibitors and a combination against Cryptocaryon irritans on Pagrus major", "format": "in vivo", "conditions": "300 mg/kg fish body weight/day for three days; 60 parasites per plot; P=<0.01", "text": "as §1", "values": [{"compound": "Cc1cc(NS(=O)(=O)c2ccc(N)cc2)nc(C)n1", "note": "[SID, sulfisomidine]", "growth rate of parasites (body length as percentage of control plot), difference to control plot": "statistically significant difference"}, {"compound": "sulfisozole [SIZ]", "growth rate of parasites (body length as percentage of control plot), difference to control plot": "statistically significant difference"}, {"compound": "Cc1ccnc(NS(=O)(=O)c2ccc(N)cc2)n1", "note": "[SMDN, sulfamerazine]", "growth rate of parasites (body length as percentage of control plot), difference to control plot": "statistically significant difference"}, {"compound": "COc1cc(NS(=O)(=O)c2ccc(N)cc2)nc(OC)n1", "note": "[SDMX, sulfadimethoxine]", "growth rate of parasites (body length as percentage of control plot), difference to control plot": "statistically significant difference"}, {"compound": "COc1cc(NS(=O)(=O)c2ccc(N)cc2)ncn1", "note": "[SMMX, sulfamonomethoxine]", "growth rate of parasites (body length as percentage of control plot), difference to control plot": "statistically significant difference"}, {"compound": "Cc1nnc(NS(=O)(=O)c2ccc(N)cc2)s1", "note": "[SMZ, sulfamethizole]", "growth rate of parasites (body length as percentage of control plot), difference to control plot": "statistically significant difference"}]}, {"tested_on": "Cryptocaryon irritans", "assay": "Example 1: oral administration against parasitism of Cryptocaryon irritans on Pagrus major (1)", "conditions": "50 mg trimethoprim/kg body weight/day orally for three days; three days after the exposure", "values": [{"compound": "COc1cc(Cc2cnc(N)nc2N)cc(OC)c1OC", "note": "[TMP, trimethoprim]", "number of parasites (left gills, FIG. 1) relative to control plot": "tend to be large"}]}]}
